Experimental findings from publication PMC7646549, “Novel piperidine derivatives as colchicine binding site inhibitors induce apoptosis and inhibit epithelial-mesenchymal transition against prostate cancer PC3 cells” (Journal of Enzyme Inhibition and Medicinal Chemistry, 2020) are described below.

For this test, the system named is T1, tubulin (β-tubulin, colchicine binding site).
T1 construct: gene TUBB; with α-tubulin
Briefly: in vitro tubulin polymerisation assay; supported by EBI competition assay (β-tubulin adduct) in PC3 cells. Type of test: biochemical.

What is called IC50 is the concentration that gives 50% inhibition. Read a high IC50 as lower potency. In turn, `COc1ccc(CN(C(=O)CN2C(=O)CCCC2=O)c2cc(OC)c(OC)c(OC)c2)cc1` [17a, 2–(2,6-Dioxopiperidin-1-yl)-N-(4-methoxybenzyl)-N-(3,4,5-trimethoxyphenyl) acetamide] yielded an IC50 of 2.03 µM.
